Entries after “also recorded” stand apart in the source; their conditions may differ. Ends that are not written are not given here.

The test system of data set [1] is HEK cells. Description: Cytotoxicity with varying cell densities, HEK cells. As to conditions: 5×10^3 to 1×10^5 cells/well.
The subject of a further data set is human adenovirus 5. As to conditions: read-out: EC50 against adenovirus (AdV); plaque assay.
The subject of another data set is HEK 293T/17 cells. Description: Cytotoxicity assay, CELLTITER-GLO, HEK cells. As to conditions: CELLTITER-GLO, 3 days. (In general: ATP-based viability assays read luminescence as a measure of living cells.)
For data set [2], the system named is Lassa pseudovirus (LASVpv). To be noted: 1 h.
Another data set has as its system Vero E6 cells. Description: Cytotoxicity assay, CELLTITER-GLO, Vero E6 cells. To be noted: peptide concentrations at or below 2 μM, about 72 hours.
Data set [3] concerns HEK cells. The data set can be described thus: Cytotoxicity with varying serum (FBS) concentrations, HEK cells. To be noted: 0-50% FBS.
The next data set concerns dengue virus type 2. As to conditions: read-out: EC50 against dengue virus (DENV); plaque assay.
Data set [4] has as its system herpes simplex virus type 1. To be noted: read-out: EC50 against herpes simplex virus (HSV); plaque assay.

As to “RRWLLLLNLLLLWRR-NH2 [TL4NdG, RRWLLLLNLLLLWRR]”, the “effect of cell density on cytotoxicity” value with HEK cells [1] is “remained consistent as cell density increases”. The EC50 (usually the midpoint of the concentration-response curve) in the data set on human adenovirus 5 is above 10000 nM. The “cytotoxicity against HEK cells” value in the data set with HEK 293T/17 cells is on record as “least cytotoxic test peptide; also recorded: much less cytotoxic than TL3; also recorded: least cytotoxic peptide tested”. In addition, the “inhibition of LASVpv at 50 μM peptide” value in data set [2] is “greater than 50%”. Besides, the “cell viability, Vero E6 cells” value in the data set with Vero E6 cells is reported as “High cell viability”. For the same substance, in the data set with HEK cells [3], the “effect of serum concentration on cytotoxicity” value is listed as “essentially unchanged by serum concentration”.
RRGWLLLRLLRLLLRLLWGRR-NH2 [AHR]: the 50% effective concentration (EC50) in the data set on dengue virus type 2 was 310 nM; in the data set on human adenovirus 5, 1100 nM; in data set [2] it was below 10000 nM; in data set [4] it was 157 nM. Also, in the data set on HEK cells [1], the “effect of cell density on cytotoxicity” value was “increases as cell density increases”. The “inhibition of LASVpv at 50 μM peptide” value in data set [2] was “approximately 100%”. The “cell viability, Vero E6 cells” value in the data set with Vero E6 cells is given as “High cell viability”. Besides, the “effect of serum concentration on cytotoxicity” value in the data set with HEK cells [3] is “cytotoxic in all serum concentrations at high peptide concentrations”.

(Values after patent US20230220010A1, “BROAD-SPECTRUM ANTIVIRAL PEPTIDES” (priority 2020, published 2023).)
